[ ]: non-standard residue; d: D form. NMeF = CN[C@@H](Cc1ccccc1)C(=O)O; NMeA = CN[C@@H](C)C(=O)O
Key:
[1] = tested on: Lolium multiflorum (Ray grass); details: previously reported cyclotetrapeptides; cited from earlier work
[2] = tested on: Microcystis aeruginosa strain (MVCC42); test: Cyanobacteria growth inhibition; details: colistin 30 μg/mL, positive control; duplicates, 7–10 days
[3] = qualitative; cited from earlier work
[4] = tested on: microcystins in Microcystis (MVCC42) cultures; format: cell-based, Microcystis aeruginosa
HepG2 cells = details: qualitative; cited from earlier work
[5] = tested on: Lolium multiflorum (Ray grass); test: Herbicidal activity, germination in agar methodology; format: in vivo; details: 67 μg/mL in agar; Ryegrass, 12 days; three replicates; Figure S48

cyclo([NMeA]LFG) [compound 17]
radicle growth inhibition (reported activity) [1]: 71%

cyclo([NMeA]L[NMeF]G) [compound 24]
radicle growth inhibition (reported activity) [1]: 81%

CCc1cccc(C)c1N(C(=O)CCl)[C@@H](C)COC [Positive control, S-metolachlor]
reduction of chlorophyll a (%) [2]: 99%

cyclo(NMe-Ala-Leu-NMe-Δ^z-Phe-Gly) (head to tail) [Tentoxin]
phytotoxic effect on seedlings [3]: causes seedling chlorosis

cyclo(AL[dF]G) [compound 16]
radicle growth inhibition (reported activity) [1]: 41%

colistine
inhibition of microcystins concentration (%) [4]: 90%

versicotide D
cytotoxicity on HepG2 cells (HepG2 cells): low cytotoxicity | phytotoxicity [3]: high phytotoxicity

NH-MeAla-Leu-D-Phe-β-Ala-OH [compound 29]
leaf development (%) [5]: not active

Source: paper PMC11079878 (ACS Omega, 2024)
